According to ChEMBL document CHEMBL1201861, “Genomics of Drug Sensitity in Cancer screening data, Wellcome Trust Sanger Institute”:

How the values were obtained:
[1] = test system: COR-L23; experiment: cells; type: functional, cell-based; details: Homo sapiens;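 also: cell viability assay measuring how strongly compounds suppress growth of COR-L23 cells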
Description: SANGER: Inhibition of human COR-L23 cell growth in a cell viability assay.

[2] = test system: CaR-1; experiment: cells; type: functional, cell-based; details: Homo sapiens;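 also: growth inhibition of human CaR-1 cancer cells, read out with a cell viability assay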
Description: SANGER: Inhibition of human CaR-1 cell growth in a cell viability assay.

[3] = test system: DK-MG; experiment: cells; type: functional, cell-based; details: Homo sapiens;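 also: growth inhibition of DK-MG cells, read out with a cell viability assay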
Description: SANGER: Inhibition of human DK-MG cell growth in a cell viability assay.

[4] = test system: EB-3; experiment: cells; type: functional, cell-based, Homo sapiens; details: Homo sapiens, EB-3;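 also: human EB-3 cells, growth inhibition read out via a cell viability assay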
Description: SANGER: Inhibition of human EB-3 cell growth in a cell viability assay.

[5] = test system: EB2; experiment: cells; type: functional, cell-based, Homo sapiens; details: Homo sapiens, EB2;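 also: growth inhibition of EB2 cells, read out with a cell viability assay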
Description: SANGER: Inhibition of human EB2 cell growth in a cell viability assay.

[6] = test system: EC-GI-10; experiment: cells; type: functional, cell-based, Homo sapiens; details: Homo sapiens, EC-GI-10
Description: SANGER: Inhibition of human EC-GI-10 cell growth in a cell viability assay.

[7] = test system: EW-24; experiment: cells; type: functional, cell-based, Homo sapiens; details: Homo sapiens, EW-24;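 also: human EW-24 cancer cell line, growth inhibition read out via a cell viability assay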
Description: SANGER: Inhibition of human EW-24 cell growth in a cell viability assay.

[8] = test system: GP5d; experiment: cells; type: functional, cell-based; details: Homo sapiens;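 also: growth inhibition of human GP5d cells, read out with a cell viability assay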
Description: SANGER: Inhibition of human GP5d cell growth in a cell viability assay.

[9] = test system: HCC1599; experiment: cells; type: functional, cell-based, Homo sapiens; details: Homo sapiens, HCC1599;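 also: growth inhibition of HCC1599 cells, read out in a cell viability assay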
Description: SANGER: Inhibition of human HCC1599 cell growth in a cell viability assay.

[10] = test system: HCC38; experiment: cells; type: functional, cell-based; details: Homo sapiens;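 also: cell viability assay on the human HCC38 cell line, with IC50 marking the concentration that inhibits cell growth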
Description: SANGER: Inhibition of human HCC38 cell growth in a cell viability assay.

[11] = test system: HCT-15; experiment: cells; type: functional, cell-based; details: Homo sapiens;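 also: cell viability readout, IC50 reflecting suppression of HCT-15 cell growth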
Description: SANGER: Inhibition of human HCT-15 cell growth in a cell viability assay.

[12] = test system: HEC-1; experiment: cells; type: functional, cell-based; details: Homo sapiens;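 also: growth inhibition of the cell line, read out with a cell viability assay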
Description: SANGER: Inhibition of human HEC-1 cell growth in a cell viability assay.

[13] = test system: HOS; experiment: cells; type: functional, cell-based; details: Homo sapiens;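 also: growth inhibition of human HOS cells, read out with a cell viability assay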
Description: SANGER: Inhibition of human HOS cell growth in a cell viability assay.

[14] = test system: HT1197; experiment: cells; type: functional, cell-based, HT-1197; details: Homo sapiens
Description: SANGER: Inhibition of human HT-1197 cell growth in a cell viability assay.

[15] = test system: IST-SL2; experiment: cells; type: functional, cell-based, Homo sapiens; details: Homo sapiens, IST-SL2;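 also: growth inhibition of human IST-SL2 cells, read out by a cell viability assay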
Description: SANGER: Inhibition of human IST-SL2 cell growth in a cell viability assay.

[16] = test system: KARPAS-422; experiment: cells; type: functional, cell-based, Homo sapiens; details: Homo sapiens, KARPAS-422
Description: SANGER: Inhibition of human KARPAS-422 cell growth in a cell viability assay.

[17] = test system: KYSE-140; experiment: cells; type: functional, cell-based; details: Homo sapiens;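 also: cell viability assay measuring growth inhibition in human KYSE-140 cells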
Description: SANGER: Inhibition of human KYSE-140 cell growth in a cell viability assay.

[18] = test system: KYSE-450; experiment: cells; type: functional, cell-based; details: Homo sapiens;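 also: cell growth inhibition measured by a viability assay in human KYSE-450 cells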
Description: SANGER: Inhibition of human KYSE-450 cell growth in a cell viability assay.

[19] = test system: KYSE-520 cell line; experiment: cells; type: functional, cell-based; details: Homo sapiens;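 also: growth inhibition of human KYSE-520 cells, read out with a viability assay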
Description: SANGER: Inhibition of human KYSE-520 cell growth in a cell viability assay.

[20] = test system: KYSE-70 cell line; experiment: cells; type: functional, cell-based; details: Homo sapiens;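 also: cell viability assay read-out, with IC50 expressing suppression of KYSE-70 cell growth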
Description: SANGER: Inhibition of human KYSE-70 cell growth in a cell viability assay.

[21] = test system: L-540; experiment: cells; type: functional, cell-based, Homo sapiens; details: Homo sapiens, L-540;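 also: growth inhibition of the human L-540 cell line, read out with a viability assay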
Description: SANGER: Inhibition of human L-540 cell growth in a cell viability assay.

[22] = test system: LP-1; experiment: cells; type: functional, cell-based, Homo sapiens; details: Homo sapiens, LP-1;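 also: growth inhibition of human LP-1 cells, with the read-out taken from a cell viability assay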
Description: SANGER: Inhibition of human LP-1 cell growth in a cell viability assay.

[23] = test system: LU-99A; experiment: cells; type: functional, cell-based; details: Homo sapiens;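 also: growth inhibition of LU-99A cells, read out with a cell viability assay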
Description: SANGER: Inhibition of human LU-99A cell growth in a cell viability assay.

[24] = test system: MRK-nu-1; experiment: cells; type: functional, cell-based, Homo sapiens; details: Homo sapiens, MRK-nu-1;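 also: cell viability assay measuring growth suppression of human MRK-nu-1 cells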
Description: SANGER: Inhibition of human MRK-nu-1 cell growth in a cell viability assay.

[25] = test system: NCCIT; experiment: SANGER: Inhibition of human NCCIT cell growth in a cell viability assay.; type: functional, cell-based; details: Homo sapiens, NCCIT
[26] = test system: NCI-H1522; experiment: cells; type: functional, cell-based, Homo sapiens; details: Homo sapiens, NCI-H1522;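 also: growth inhibition of NCI-H1522 cells, read out with a cell viability assay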
Description: SANGER: Inhibition of human NCI-H1522 cell growth in a cell viability assay.

[27] = test system: NCI-H2081; experiment: cells; type: functional, cell-based, Homo sapiens; details: Homo sapiens, NCI-H2081;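 also: growth inhibition of human NCI-H2081 cells, read out with a cell viability assay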
Description: SANGER: Inhibition of human NCI-H2081 cell growth in a cell viability assay.

[28] = test system: NCI-H2087; experiment: cells; type: functional, cell-based; details: Homo sapiens;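 also: growth inhibition determined with a cell viability readout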
Description: SANGER: Inhibition of human NCI-H2087 cell growth in a cell viability assay.

[29] = test system: NCI-H322M; experiment: cells; type: functional, cell-based, Homo sapiens; details: Homo sapiens, NCI-H322M;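 also: cell viability assay measuring inhibition of growth of human NCI-H322M cells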
Description: SANGER: Inhibition of human NCI-H322M cell growth in a cell viability assay.

[30] = test system: NCI-H64; experiment: cells; type: functional, cell-based, Homo sapiens; details: Homo sapiens, NCI-H64;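 also: growth inhibition of NCI-H64 cells, read out with a cell viability assay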
Description: SANGER: Inhibition of human NCI-H64 cell growth in a cell viability assay.

[31] = test system: NCI-H727; experiment: cells; type: functional, cell-based; details: Homo sapiens;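 also: growth inhibition of human NCI-H727 cells, read out with a cell viability assay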
Description: SANGER: Inhibition of human NCI-H727 cell growth in a cell viability assay.

[32] = test system: SNU-16; experiment: cells; type: functional, cell-based, Homo sapiens; details: Homo sapiens, SNU-16;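 also: growth inhibition of human SNU-16 cells, determined with a cell viability readout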
Description: SANGER: Inhibition of human NCI-SNU-16 cell growth in a cell viability assay.

[33] = test system: P12-Ichikawa; experiment: cells; type: functional, cell-based; details: Homo sapiens
[34] = test system: PC-14; experiment: cells; type: functional, cell-based; details: Homo sapiens;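 also: cell viability assay measuring inhibition of PC-14 cell growth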
Description: SANGER: Inhibition of human PC-14 cell growth in a cell viability assay.

[35] = test system: PFSK-1; experiment: cells; type: functional, cell-based; details: Homo sapiens;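 also: cell viability assay measuring how strongly compounds suppress growth of human PFSK-1 cells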
Description: SANGER: Inhibition of human PFSK-1 cell growth in a cell viability assay.

[36] = test system: RERF-LC-MS; experiment: cells; type: functional, cell-based; details: Homo sapiens;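 also: growth inhibition of human RERF-LC-MS cells, read out by a cell viability assay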
Description: SANGER: Inhibition of human RERF-LC-MS cell growth in a cell viability assay.

[37] = test system: RVH-421; experiment: cells; type: functional, cell-based; details: Homo sapiens
Description: SANGER: Inhibition of human RVH-421 cell growth in a cell viability assay.

[38] = test system: SCC-4; experiment: cells; type: functional, cell-based; details: Homo sapiens;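 also: growth inhibition of human SCC-4 cells, read out as cell viability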
Description: SANGER: Inhibition of human SCC-4 cell growth in a cell viability assay.

[39] = test system: SCC-9; experiment: cells; type: functional, cell-based; details: Homo sapiens;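 also: Read-out is a cell viability assay, with values giving inhibition of cell growth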
Description: SANGER: Inhibition of human SCC-9 cell growth in a cell viability assay.

[40] = test system: SK-MEL-28; experiment: cells; type: functional, cell-based; details: Homo sapiens;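 also: growth inhibition of human SK-MEL-28 cells, read out with a cell viability assay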
Description: SANGER: Inhibition of human SK-MEL-28 cell growth in a cell viability assay.

[41] = test system: SK-MEL-30; experiment: cells; type: functional, cell-based; details: Homo sapiens;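 also: growth inhibition of SK-MEL-30 cells, determined with a cell viability assay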
Description: SANGER: Inhibition of human SK-MEL-30 cell growth in a cell viability assay.

[42] = test system: SNU-423; experiment: cells; type: functional, cell-based; details: Homo sapiens
Description: SANGER: Inhibition of human SNU-423 cell growth in a cell viability assay.

[43] = test system: SNU-449; experiment: cells; type: functional, cell-based; details: Homo sapiens
Description: SANGER: Inhibition of human SNU-449 cell growth in a cell viability assay.

[44] = test system: SW13; experiment: cells; type: functional, cell-based; details: Homo sapiens;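 also: IC50 is inhibition of SW13 cell growth, read out with a cell viability assay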
Description: SANGER: Inhibition of human SW13 cell growth in a cell viability assay.

[45] = test system: SW948; experiment: cells; type: functional, cell-based; details: Homo sapiens;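 also: growth inhibition of SW948 cells, read out with a cell viability assay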
Description: SANGER: Inhibition of human SW948 cell growth in a cell viability assay.

[46] = test system: 8305C; experiment: cells; type: functional, cell-based; details: Homo sapiens
Description: SANGER: Inhibition of human 8305C cell growth in a cell viability assay.

[47] = test system: A-375; experiment: cells; type: functional, cell-based; details: Homo sapiens;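 also: growth inhibition of A375 cells, read out with a cell viability assay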
Description: SANGER: Inhibition of human A375 cell growth in a cell viability assay.

[48] = test system: A-431; experiment: cells; type: functional, cell-based; details: Homo sapiens;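 also: growth inhibition of A-431 cells, determined with a cell viability read-out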
Description: SANGER: Inhibition of human A431 cell growth in a cell viability assay.

[49] = test system: AU565; experiment: cells; type: functional, cell-based; details: Homo sapiens;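 also: cell viability assay measuring growth inhibition of human AU565 cells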
Description: SANGER: Inhibition of human AU565 cell growth in a cell viability assay.

[50] = test system: BL-41; experiment: cells; type: functional, cell-based; details: Homo sapiens;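 also: growth inhibition of human BL-41 cells, read out with a cell viability assay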
Description: SANGER: Inhibition of human BL-41 cell growth in a cell viability assay.

[51] = test system: BT-20; experiment: cells; type: functional, cell-based; details: Homo sapiens;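 also: cell viability assay measuring suppression of growth in human BT-20 cells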
Description: SANGER: Inhibition of human BT-20 cell growth in a cell viability assay.

[52] = test system: C-33-A; experiment: cells; type: functional, cell-based; details: Homo sapiens;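 also: cell viability assay measuring growth inhibition of C-33-A cells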
Description: SANGER: Inhibition of human C-33-A cell growth in a cell viability assay.

[53] = test system: CAL-27; experiment: cells; type: functional, cell-based; details: Homo sapiens;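 also: Viability-based readout, IC50 reflecting inhibition of CAL-27 cell growth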
Description: SANGER: Inhibition of human CAL-27 cell growth in a cell viability assay.

[54] = test system: CAL-39; experiment: cells; type: functional, cell-based; details: Homo sapiens;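 also: cell viability assay measuring growth inhibition of CAL-39 cells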
Description: SANGER: Inhibition of human CAL-39 cell growth in a cell viability assay.

[55] = test system: TE-441-T; experiment: cells; type: functional, cell-based, Homo sapiens; details: Homo sapiens, TE-441-T
Description: SANGER: Inhibition of human TE-441-T cell growth in a cell viability assay.

[56] = test system: CHL-1; experiment: cells; type: functional, cell-based; details: Homo sapiens;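 also: cell growth inhibition, read out with a cell viability assay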
Description: SANGER: Inhibition of human CHL-1 cell growth in a cell viability assay.

Compound: C/C(=C\c1csc(C)n1)[C@@H]1C[C@@H]2O[C@]2(C)CCC[C@H](C)[C@H](O)[C@@H](C)C(=O)C(C)(C)[C@@H](O)CC(=O)O1 [PATUPILONE]
- IC50 [1]: 1.35 nM
- IC50 [2]: > 32 nM
- IC50 [3]: > 32 nM
- IC50 [4]: > 32 nM
- IC50 [5]: 3.69 nM
- IC50 [6]: > 32 nM
- IC50 [7]: > 32 nM
- IC50 [8]: 3.09 nM
- IC50 [9]: 11.9 nM
- IC50 [10]: 3.83 nM
- IC50 [11]: 0.717 nM
- IC50 [12]: 9.09 nM
- IC50 [13]: 0.215 nM
- IC50 [14]: > 32 nM
- IC50 [15]: 7.03 nM
- IC50 [16]: 10.6 nM
- IC50 [17]: 1.23 nM
- IC50 [18]: 0.267 nM
- IC50 [19]: 10.4 nM
- IC50 [20]: 7.58 nM
- IC50 [21]: 10.7 nM
- IC50 [22]: > 32 nM
- IC50 [23]: 5.33 nM
- IC50 [24]: 0.9 nM
- IC50 [25]: 1.73 nM
- IC50 [26]: > 32 nM
- IC50 [27]: > 32 nM
- IC50 [28]: 3.11 nM
- IC50 [29]: > 32 nM
- IC50 [30]: 8.25 nM
- IC50 [31]: 1.8 nM
- IC50 [32]: 31 nM
- IC50 [33]: 11 nM
- IC50 [34]: 4.21 nM
- IC50 [35]: 13.3 nM
- IC50 [36]: 24.5 nM
- IC50 [37]: 14.3 nM
- IC50 [38]: 0.877 nM
- IC50 [39]: > 32 nM
- IC50 [40]: > 32 nM
- IC50 [41]: 1.34 nM
- IC50 [42]: 1.67 nM
- IC50 [43]: 1.91 nM
- IC50 [44]: 5.01 nM
- IC50 [45]: 17.8 nM
- IC50 [46]: 2.32 nM
- IC50 [47]: 0.05 nM
- IC50 [48]: < 0.125 nM
- IC50 [49]: 4.1 nM
- IC50 [50]: 1.35 nM
- IC50 [51]: 5.1 nM
- IC50 [52]: 3.27 nM
- IC50 [53]: 1.39 nM
- IC50 [54]: 0.411 nM
- IC50 [55]: 26.3 nM
- IC50 [56]: 0.979 nM
